Test results from ChEMBL document CHEMBL1240454, “1,3-Dioxolane-based ligands incorporating a lactam or imide moiety: structure-affinity/activity relationship at alpha1-adrenoceptor subtypes and at 5-HT1A receptors” (Eur J Med Chem, 2010).

Assays:
[1] = target: T1, 5-hydroxytryptamine receptor 1A (Homo sapiens) (UniProt P08908); assay: Agonist activity at human cloned 5HT1A receptor expressed in human HeLa cells assessed as stimulation of [35S]GTPgammaS binding after 20 mins by liquid scintillation counting; assay type: functional, cell-based
T1 sequence (whole entry): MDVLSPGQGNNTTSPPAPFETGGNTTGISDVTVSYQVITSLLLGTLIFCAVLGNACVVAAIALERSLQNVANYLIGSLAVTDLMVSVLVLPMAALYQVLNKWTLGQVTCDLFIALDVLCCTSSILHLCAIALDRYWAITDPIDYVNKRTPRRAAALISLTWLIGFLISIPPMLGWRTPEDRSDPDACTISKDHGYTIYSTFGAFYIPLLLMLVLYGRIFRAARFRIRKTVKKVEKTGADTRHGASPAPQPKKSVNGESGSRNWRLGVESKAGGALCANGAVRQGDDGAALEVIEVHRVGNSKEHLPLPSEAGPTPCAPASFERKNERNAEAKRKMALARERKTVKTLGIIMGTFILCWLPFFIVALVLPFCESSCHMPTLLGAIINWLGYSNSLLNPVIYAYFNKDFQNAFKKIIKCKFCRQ

[2] = target: T1, 5-hydroxytryptamine receptor 1A (Homo sapiens); assay: Agonist activity at human cloned 5HT1A receptor expressed in human HeLa cells assessed as stimulation of [35S]GTPgammaS binding after 20 mins by liquid scintillation counting relative to maximal 5HT response; assay type: functional, cell-based
[3] = target: T2, Alpha-1B adrenergic receptor (Rattus norvegicus) (UniProt P15823); assay: Antagonist activity at adrenergic Alpha-1B receptor in Wistar rat spleen assessed as inhibition of […]-induced tissue contraction treated 30 mins before […] challenge; assay type: functional, tissue-based
T2 sequence (whole entry): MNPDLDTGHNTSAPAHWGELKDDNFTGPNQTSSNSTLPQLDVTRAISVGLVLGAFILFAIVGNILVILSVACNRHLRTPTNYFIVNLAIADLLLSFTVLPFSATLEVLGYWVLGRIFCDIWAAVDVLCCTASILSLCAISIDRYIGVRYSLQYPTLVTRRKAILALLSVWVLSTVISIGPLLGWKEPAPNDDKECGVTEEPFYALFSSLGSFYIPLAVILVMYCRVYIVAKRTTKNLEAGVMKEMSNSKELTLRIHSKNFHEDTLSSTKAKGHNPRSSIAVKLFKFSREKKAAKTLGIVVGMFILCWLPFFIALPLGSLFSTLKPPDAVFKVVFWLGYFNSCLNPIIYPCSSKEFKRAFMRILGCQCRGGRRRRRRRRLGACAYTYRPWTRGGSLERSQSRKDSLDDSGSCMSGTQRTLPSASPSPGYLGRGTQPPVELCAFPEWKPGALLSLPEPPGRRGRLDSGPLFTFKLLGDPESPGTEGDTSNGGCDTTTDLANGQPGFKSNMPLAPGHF

Row | SMILES | pD2 [1] | Emax [2] | pKb [3]
1 | CCCN(CCC)C1CCc2cccc(O)c2C1 (stereo not given) | 9.27 | 26% | –
2 | COc1ccccc1N1CCN(CCN2C(=O)CC3(CCCC3)CC2=O)CC1 | 7.83 | 100% | 7.48
